Data from patent US20260265238A1, “COMPOUNDS AND PHARMACEUTICAL COMPOSITIONS THAT DEGRADE SWI/SNF-RELATED MATRIX-ASSOCIATED ACTIN-DEPENDENT REGULATOR OF CHROMATIN SUBFAMILY A” (Plexium, Inc., priority 2023, published 2026).

Columns and labels:
[1] = molecular target: T1, SMARCA2-HiBiT HeLa cells (protein which is expressed from the SMARCA2 gene) (Homo sapiens, UniProt P51531); experiment: SMARCA2 degradation assay (HiBiT-fusion HeLa cell line, 24 h, luminescence); type: cell-based
T1 construct: protein which is expressed from the SMARCA2 and SMARCA4 genes; host or cells: HeLa (SMARCA2-HiBiT engineered line)
T1 sequence (P51531 whole entry, the tested form may be a part): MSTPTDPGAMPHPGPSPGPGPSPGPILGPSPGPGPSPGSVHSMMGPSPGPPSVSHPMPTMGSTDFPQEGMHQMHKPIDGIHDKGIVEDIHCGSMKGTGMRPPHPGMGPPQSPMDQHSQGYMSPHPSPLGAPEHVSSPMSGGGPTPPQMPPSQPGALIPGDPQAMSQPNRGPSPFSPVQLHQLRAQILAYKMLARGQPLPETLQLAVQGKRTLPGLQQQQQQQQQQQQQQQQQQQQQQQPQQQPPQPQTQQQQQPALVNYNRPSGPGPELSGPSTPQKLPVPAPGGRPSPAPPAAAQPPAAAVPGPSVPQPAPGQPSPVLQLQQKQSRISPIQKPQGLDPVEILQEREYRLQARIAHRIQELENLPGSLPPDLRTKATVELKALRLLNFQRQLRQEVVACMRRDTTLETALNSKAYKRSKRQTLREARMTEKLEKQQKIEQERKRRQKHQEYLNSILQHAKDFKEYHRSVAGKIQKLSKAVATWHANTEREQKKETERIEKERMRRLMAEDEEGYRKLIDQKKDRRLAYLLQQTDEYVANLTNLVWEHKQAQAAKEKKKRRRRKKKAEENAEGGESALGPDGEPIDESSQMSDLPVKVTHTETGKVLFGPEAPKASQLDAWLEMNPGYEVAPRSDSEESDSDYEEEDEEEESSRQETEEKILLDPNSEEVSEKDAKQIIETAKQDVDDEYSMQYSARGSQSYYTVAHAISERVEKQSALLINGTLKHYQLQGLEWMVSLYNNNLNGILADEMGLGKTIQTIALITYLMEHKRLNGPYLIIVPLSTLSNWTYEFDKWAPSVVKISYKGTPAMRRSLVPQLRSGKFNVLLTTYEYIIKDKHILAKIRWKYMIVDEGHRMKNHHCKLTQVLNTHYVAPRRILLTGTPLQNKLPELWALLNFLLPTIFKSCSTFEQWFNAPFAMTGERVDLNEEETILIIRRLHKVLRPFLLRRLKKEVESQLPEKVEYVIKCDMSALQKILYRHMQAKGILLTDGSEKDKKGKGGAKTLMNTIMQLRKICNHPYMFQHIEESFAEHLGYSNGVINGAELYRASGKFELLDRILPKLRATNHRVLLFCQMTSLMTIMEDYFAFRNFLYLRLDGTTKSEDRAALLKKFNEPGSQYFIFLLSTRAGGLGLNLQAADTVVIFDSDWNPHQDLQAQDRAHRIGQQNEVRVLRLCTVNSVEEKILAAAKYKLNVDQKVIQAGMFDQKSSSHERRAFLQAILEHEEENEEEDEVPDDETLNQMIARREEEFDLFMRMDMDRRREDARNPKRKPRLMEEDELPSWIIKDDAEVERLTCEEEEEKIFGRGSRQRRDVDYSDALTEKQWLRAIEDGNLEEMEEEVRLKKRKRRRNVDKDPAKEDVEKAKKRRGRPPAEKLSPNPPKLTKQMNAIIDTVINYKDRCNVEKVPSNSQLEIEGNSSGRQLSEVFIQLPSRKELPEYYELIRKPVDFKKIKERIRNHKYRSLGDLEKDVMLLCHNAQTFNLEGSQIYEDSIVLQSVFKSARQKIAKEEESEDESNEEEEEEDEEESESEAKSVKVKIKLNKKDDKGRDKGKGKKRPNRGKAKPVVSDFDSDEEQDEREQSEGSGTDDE
Method: (§1) SMARCA2 and SMARCA4 Degradation Assay
(§2) Degradation of protein which is expressed from the SMARCA2 and SMARCA4 genes was monitored using engineered HiBiT-fusion HeLa cell lines from Promega. In brief, 384-well white opaque plates (Greiner) were seeded with SMARCA2-HiBiT or SMARCA4-HiBiT HeLa cells at 8,000 cells/well and incubated overnight at 37° C. to allow cell attachment. After overnight incubation, test compounds were added in a 10-point dilution series (typically 10 μM to 300 pM) using a TECAN D300e Digital Dispenser, and plates were subsequently incubated for 24 hours at 37° C. 24-hours post-treatment, protein levels were quantified with the addition of HiBiT lytic buffer, LgBiT protein, and HiBiT substrate, according to manufacturer's specifications. Plates were incubated on an orbital plate shaker for 10 minutes at room temperature. Resulting luminescent values were read out using a ClarioStar plate reader and used to construct dose-response curves and calculation of degradation DC50s (GraphPad Prism).
(§3) Activity of the tested compounds is provided in Table 4 below as follows: A=DC50<0.050 μM; B=0.05 μM<DC50<0.50 μM; C=<0.5 μM<DC50<5.0 μM; D=DC50>5.0 μM. For SMARCA2 and SMARCA4 degradation activity @1 μM, +++=>70%; ++=30-70%; +=<30%.

[2] = molecular target: T2, SMARCA4-HiBiT HeLa cells (protein which is expressed from the SMARCA4 gene) (Homo sapiens, UniProt P51532); experiment: SMARCA4 degradation assay (HiBiT-fusion HeLa cell line, 24 h, luminescence); type: cell-based
T2 construct: protein which is expressed from the SMARCA2 and SMARCA4 genes; host or cells: HeLa (SMARCA4-HiBiT engineered line)
T2 sequence (P51532 whole entry, the tested form may be a part): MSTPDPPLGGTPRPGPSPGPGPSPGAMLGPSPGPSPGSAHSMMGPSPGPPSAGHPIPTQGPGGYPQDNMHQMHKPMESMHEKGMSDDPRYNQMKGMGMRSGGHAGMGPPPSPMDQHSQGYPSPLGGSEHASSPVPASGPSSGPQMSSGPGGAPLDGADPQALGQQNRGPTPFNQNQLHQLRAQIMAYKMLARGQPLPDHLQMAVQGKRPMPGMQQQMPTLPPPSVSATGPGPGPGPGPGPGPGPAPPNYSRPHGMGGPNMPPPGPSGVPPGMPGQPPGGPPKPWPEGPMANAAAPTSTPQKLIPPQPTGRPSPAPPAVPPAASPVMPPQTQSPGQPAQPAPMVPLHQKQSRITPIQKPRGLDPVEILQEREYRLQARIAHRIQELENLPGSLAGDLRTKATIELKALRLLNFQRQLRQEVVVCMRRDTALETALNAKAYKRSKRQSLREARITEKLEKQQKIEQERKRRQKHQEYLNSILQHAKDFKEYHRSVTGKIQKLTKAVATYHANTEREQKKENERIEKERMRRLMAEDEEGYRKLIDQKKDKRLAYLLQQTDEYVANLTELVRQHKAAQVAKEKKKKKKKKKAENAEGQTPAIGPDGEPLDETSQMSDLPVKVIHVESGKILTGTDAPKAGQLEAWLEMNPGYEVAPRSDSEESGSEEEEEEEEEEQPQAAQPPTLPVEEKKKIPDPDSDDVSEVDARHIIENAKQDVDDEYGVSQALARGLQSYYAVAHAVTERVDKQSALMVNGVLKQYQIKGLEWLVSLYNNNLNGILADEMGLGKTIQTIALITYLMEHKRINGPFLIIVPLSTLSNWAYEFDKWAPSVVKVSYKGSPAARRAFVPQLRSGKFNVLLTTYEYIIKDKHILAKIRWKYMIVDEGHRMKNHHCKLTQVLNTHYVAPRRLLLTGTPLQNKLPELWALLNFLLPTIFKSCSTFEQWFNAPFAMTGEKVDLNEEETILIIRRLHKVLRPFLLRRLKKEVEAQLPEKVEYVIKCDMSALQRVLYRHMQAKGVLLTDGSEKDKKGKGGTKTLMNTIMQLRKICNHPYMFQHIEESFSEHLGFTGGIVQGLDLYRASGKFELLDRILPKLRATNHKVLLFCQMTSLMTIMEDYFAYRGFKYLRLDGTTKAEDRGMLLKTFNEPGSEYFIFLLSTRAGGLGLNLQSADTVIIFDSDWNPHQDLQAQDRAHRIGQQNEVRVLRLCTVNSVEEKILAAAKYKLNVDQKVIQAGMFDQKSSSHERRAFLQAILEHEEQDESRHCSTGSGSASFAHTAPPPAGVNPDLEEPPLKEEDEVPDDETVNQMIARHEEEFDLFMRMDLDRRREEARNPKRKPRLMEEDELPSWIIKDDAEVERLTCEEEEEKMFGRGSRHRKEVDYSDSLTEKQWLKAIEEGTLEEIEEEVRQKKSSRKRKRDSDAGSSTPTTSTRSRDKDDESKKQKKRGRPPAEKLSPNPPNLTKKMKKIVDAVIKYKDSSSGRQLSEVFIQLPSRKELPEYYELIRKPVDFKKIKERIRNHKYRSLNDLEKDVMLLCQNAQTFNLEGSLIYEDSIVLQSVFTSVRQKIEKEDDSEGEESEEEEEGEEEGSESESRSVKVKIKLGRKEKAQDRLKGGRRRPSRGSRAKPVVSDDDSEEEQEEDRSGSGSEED
Method: as §1, §2, §3

DC50 [1]	SMARCA2 % Degradation @ 1 μM [1]	DC50 [2]	inhibition at 1 µM [2]	Structure (SMILES)
50 to 500 nM	++ (++=30-70%)	< 50 nM	30 to 70%	CC1CN(c2cc(-c3ccccc3O)nnc2N)CCN1c1ccnc(C#CCNC(=O)c2cc3ncccn3n2)n1 (stereo in doubt) [Compound P-81, (R)-N-(3-(4-(4-(3-amino-6-(2-hydroxyphenyl)pyridazin-4-yl)-2-methylpiperazin-1-yl)pyrimidin-2-yl)prop-2-yn-1-yl)pyrazolo[1,5-a]pyrimidine-2-carboxamide]
50 to 500 nM	++ (++=30-70%)	50 to 500 nM	30 to 70%	Cc1cc(C(=O)NCC#Cc2nccc(N3CCN(c4cc(-c5ccccc5O)nnc4N)CC3)n2)no1 [Compound P-1, N-[3-(4-{4-[3-amino-6-(2-hydroxyphenyl)pyridazin-4-yl]piperazin-1-yl}pyrimidin-2-yl)prop-2-yn-1-yl]-5-methyl-1,2-oxazole-3-carboxamide]
50 to 500 nM	++ (++=30-70%)	50 to 500 nM	30 to 70%	CCc1cc(C(=O)NCC#Cc2nccc(N3CCN(c4cc(-c5ccccc5O)nnc4N)CC3)n2)nn1C [Compound P-2, N-[3-(4-{4-[3-amino-6-(2-hydroxyphenyl)pyridazin-4-yl]piperazin-1-yl}pyrimidin-2-yl)prop-2-yn-1-yl]-5-ethyl-1-methyl-1H-pyrazole-3-carboxamide]
50 to 500 nM	++ (++=30-70%)	50 to 500 nM	30 to 70%	Cc1oncc1C(=O)NCC#Cc1nccc(N2CCN(c3cc(-c4ccccc4O)nnc3N)CC2)n1 [Compound P-3, N-[3-(4-{4-[3-amino-6-(2-hydroxyphenyl)pyridazin-4-yl]piperazin-1-yl}pyrimidin-2-yl)prop-2-yn-1-yl]-5-methyl-1,2-oxazole-4-carboxamide]
50 to 500 nM	++ (++=30-70%)	50 to 500 nM	< 30%	Nc1nnc(-c2ccccc2O)cc1N1CCN(c2ccnc(C#CCNC(=O)c3cccnc3)n2)CC1 [Compound P-4, N-[3-(4-{4-[3-amino-6-(2-hydroxyphenyl)pyridazin-4-yl]piperazin-1-yl}pyrimidin-2-yl)prop-2-yn-1-yl]pyridine-3-carboxamide]
50 to 500 nM	++ (++=30-70%)	50 to 500 nM	< 30%	Nc1nnc(-c2ccccc2O)cc1N1CCN(c2ccnc(C#CCNC(=O)c3cccnn3)n2)CC1 [Compound P-5, N-[3-(4-{4-[3-amino-6-(2-hydroxyphenyl)pyridazin-4-yl]piperazin-1-yl}pyrimidin-2-yl)prop-2-yn-1-yl]pyridazine-3-carboxamide]
50 to 500 nM	++ (++=30-70%)	< 50 nM	30 to 70%	Cn1nc(C(=O)NCC#Cc2nccc(N3CCN(c4cc(-c5ccccc5O)nnc4N)CC3)n2)cc1C1CC1 [Compound P-6, N-[3-(4-{4-[3-amino-6-(2-hydroxyphenyl)pyridazin-4-yl]piperazin-1-y1}pyrimidin-2-yl)prop-2-yn-1-yl]-5-cyclopropyl-1-methyl-1H-pyrazole-3-carboxamide]
50 to 500 nM	++ (++=30-70%)	< 50 nM	30 to 70%	Cn1ccc(C(=O)NCC#Cc2nccc(N3CCN(c4cc(-c5ccccc5O)nnc4N)CC3)n2)n1 [Compound P-7, N-[3-(4-{4-[3-amino-6-(2-hydroxyphenyl)pyridazin-4-yl]piperazin-1-yl}pyrimidin-2-yl)prop-2-yn-1-yl]-1-methyl-1H-pyrazole-3-carboxamide]
50 to 500 nM	++ (++=30-70%)	< 50 nM	30 to 70%	Cc1c(C(=O)NCC#Cc2nccc(N3CCN(c4cc(-c5ccccc5O)nnc4N)CC3)n2)nn(C)c1C [Compound P-8, N-[3-(4-{4-[3-amino-6-(2-hydroxyphenyl)pyridazin-4-yl]piperazin-1-yl}pyrimidin-2-yl)prop-2-yn-1-yl]-1,4,5-trimethyl-1H-pyrazole-3-carboxamide]
50 to 500 nM	++ (++=30-70%)	< 50 nM	30 to 70%	Nc1nnc(-c2ccccc2O)cc1N1CCN(c2ccnc(C#CCNC(=O)c3ccn(CC(F)(F)F)n3)n2)CC1 [Compound P-9, N-[3-(4-{4-[3-amino-6-(2-hydroxyphenyl)pyridazin-4-yl]piperazin-1-yl}pyrimidin-2-yl)prop-2-yn-1-yl]-1-(2,2,2-trifluoroethyl)-1H-pyrazole-3-carboxamidc]
50 to 500 nM	++ (++=30-70%)	< 50 nM	30 to 70%	Nc1nnc(-c2ccccc2O)cc1N1CCN(c2ccnc(C#CCNC(=O)c3ccn(C(F)F)n3)n2)CC1 [Compound P-10, N-[3-(4-{4-[3-amino-6-(2-hydroxyphenyl)pyridazin-4-yl]piperazin-1-yl}pyrimidin-2-yl)prop-2-yn-1-y1]-1-(difluoromethyl)-1H-pyrazole-3-carboxamide]
< 50 nM	++ (++=30-70%)	< 50 nM	30 to 70%	Nc1nnc(-c2ccccc2O)cc1N1CCN(c2ccnc(C#CCNC(=O)c3ccn(C4CC4)n3)n2)CC1 [Compound P-11, N-[3-(4-{4-[3-amino-6-(2-hydroxyphenyl)pyridazin-4-yl]piperazin-1-yl}pyrimidin-2-yl)prop-2-yn-1-y1]-1-cyclopropyl-1H-pyrazole-3-carboxamide]
50 to 500 nM	++ (++=30-70%)	50 to 500 nM	30 to 70%	Cc1cc(C(=O)NCC#Cc2nccc(N3CCN(c4cc(-c5ccccc5O)nnc4N)CC3)n2)nn1C [Compound P-12, N-(3-(4-(4-(3-amino-6-(2-hydroxyphenyl)pyridazin-4-yl)piperazin-1-yl)pyrimidin-2-yl)prop-2-yn-1-yl)-1,5-dimethyl-1H-pyrazole-3-carboxamide]
50 to 500 nM	+++ (+++=>70%)	50 to 500 nM	30 to 70%	C[C@@H]1CCN(c2cc(-c3ccccc3O)nnc2N)CCN1c1ccnc(C#CCNC(=O)c2cc3ncccn3n2)n1 [Compound P-14, (R)-N-(3-(4-(4-(3-amino-6-(2-hydroxyphenyl)pyridazin-4-yl)-7-methyl-1,4-diazepan-1-yl)pyrimidin-2-yl)prop-2-yn-1-yl)pyrazolo[1,5-a]pyrimidine-2-carboxamide]
500 to 5000 nM	+ (+=<30%)	–	–	NCC#Cc1nccc(N2CCCC3(CCN(c4cc(-c5ccccc5O)nnc4N)CC3)C2)n1 [Compound P-87, 2-(6-amino-5-(2-(2-(3-aminoprop-1-yn-1-yl)pyrimidin-4-yl)-2,9-diazaspiro[5.5]undecan-9-yl)pyridazin-3-yl)phenol]
> 5000 nM	+ (+=<30%)	–	–	NCC#Cc1nccc(N2CCC3C2CCCN3c2cc(-c3ccccc3O)nnc2N)n1 (stereo not drawn) [Compound P-88, 2-(6-amino-5-(1-(2-(3-aminoprop-1-yn-1-yl)pyrimidin-4-yl)octahydro-4H-pyrrolo[3,2-b]pyridin-4-yl)pyridazin-3-yl)phenol]
